What all share (format): in vivo
Assay [1] relates to Beet Armyworm (Spodoptera exigua, LAPHEG). The experiment in a line: Bioassay on Beet Armyworm (BAW), 128-well diet tray assay. An outline of the steps:
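Second instar larvae were exposed to diet treated at 50 μg/cm^2 for five to seven days at 25° C.; mortality was averaged over eight wells.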

The test system of assay [2] is Cabbage Looper (Trichoplusia ni, TRIPNI). Put plainly: Bioassay on Cabbage Looper (CL), 128-well diet tray assay. As to conditions: Trichoplusia ni. The procedure, abridged:
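Mortality of second instar larvae exposed to diet coated with 50 μg/cm^2 compound (acetone-water 90:10 vehicle, dried); 25° C., 5–7 days.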

Assay [3] relates to Yellow Fever Mosquito (Aedes aegypti, AEDSAE). The experiment in a line: Bioassay on Yellow Fever Mosquito (YFM), 96-well plate larval assay. As to conditions: for YFM rating: Yellow Fever Mosquito, 96-well plate larval assay; for YFM (Biological Results, rating): Species YFM (Yellow Fever Mosquito). The procedure, abridged: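 Compound stocks at 4000 ppm in DMSO were diluted with 90:10 water/acetone, and 15 μL aliquots were dispensed into six replicate plates. About 1-day-old larvae in liver-powder water were added per well. Plates were covered and held at room temperature for 3 days before each well was scored for mortality.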

[4] abbreviates: Beet Armyworm, 128-well diet tray assay, read-out: BAW rating.
Setting [5] is: Cabbage Looper, 128-well diet tray assay, read-out: CL rating.
[6] abbreviates: Species BAW (Beet Armyworm), read-out: BAW (Biological Results, rating).
The mark [7] stands for this setting: Species CL (Cabbage Looper), read-out: CL (Biological Results, rating).

Where two headings read alike, the source gives them in different places.

Regarding `C=C(F)c1ccc([C@H]2[C@H](C(=O)Nc3ccc(Cl)c(C(=O)Nc4ccc(F)cc4)c3)C2(Cl)Cl)cc1Cl` (relative stereo) [F382, 2-Chloro-5-(trans-2,2-dichloro-3-(3-chloro-4-(1-fluorovinyl)phenyl)cyclopropane-1-carboxamido)-N-(4-fluorophenyl)benzamide], the pest or weed control at 50 µg/cm2 in assay [1] (setting [4]) and in assay [2] (setting [5]) was 50 to 100% in each case. In assay [3], the YFM rating result is recorded as “A (80-100)”.
Consider `Cc1cc(F)c(NC(=O)c2cc(NC(=O)[C@H]3[C@H](c4cc(Cl)cc(Cl)c4)C3(Cl)Cl)ccc2Cl)c(C#N)c1` (relative stereo) [F300, 2-Chloro-N-(2-cyano-6-fluoro-4-methylphenyl)-5-(trans-2,2-dichloro-3-(3,5-dichlorophenyl)cyclopropane-1-carboxamido)benzamide], for which the pest or weed control at 50 µg/cm2 in assay [1] (setting [6]) and in assay [2] (setting [7]) was 50 to 100% in each case. For the same molecule, in assay [3], the “YFM (Biological Results, rating)” value is listed as “A (80-100)”.
Consider `Nc1c(F)cc(F)cc1NC(=O)c1cc(NC(=O)[C@H]2[C@H](c3cc(Cl)cc(Cl)c3)C2(Cl)Cl)ccc1Cl` [F360, N-(2-Amino-3,5-difluorophenyl)-2-chloro-5-((1R,3R)-2,2-dichloro-3-(3,5-dichlorophenyl)cyclopropane-1-carboxamido)benzamide], for which the pest or weed control at 50 µg/cm2 in assay [1] (setting [6]) and in assay [2] (setting [7]) was 50 to 100% in each case. Also, the “YFM (Biological Results, rating)” value in assay [3] is “A (80-100)”.
For the molecule `Cc1cc([C@H]2[C@H](C(=O)Nc3ccc(Cl)c(C(=O)Nc4ccc(F)cc4)c3)C2(Cl)Cl)cc(Cl)c1Cl` (relative stereo) [F123, trans-2-Chloro-5-(2,2-dichloro-3-(3,4-dichloro-5-methylphenyl)cyclopropane-1-carboxamido)-N-(4-fluorophenyl)benzamide], the pest or weed control at 50 µg/cm2 in assay [1] (setting [6]) and in assay [2] (setting [7]) was 50 to 100% throughout. Moreover, the “YFM (Biological Results, rating)” value in assay [3] is recorded as “B (More than 0-Less than 80)”.
Regarding `Nc1cc(F)c(NC(=O)c2cc(NC(=O)[C@H]3[C@H](c4ccc(F)c(Cl)c4)C3(Cl)Cl)ccc2Cl)cc1F` [F571, trans-N-(4-Amino-2,5-difluorophenyl)-2-chloro-5-((1R,3R)-2,2-dichloro-3-(3-chloro-4-fluorophenyl)cyclopropane-1-carboxamido)benzamide], the pest or weed control at 50 µg/cm2 in assay [1] (setting [4]) and in assay [2] (setting [5]) was 50 to 100% in each case. Further, in assay [3], the YFM rating result was “A (80-100)”.
In the case of `CN(C(=O)c1cc(NC(=O)[C@H]2[C@H](c3cc(Cl)cc(Cl)c3)C2(Cl)Cl)ccc1F)c1ccccc1` (relative stereo) [F66, trans-5-(2,2-Dichloro-3-(3,5-dichlorophenyl)cyclopropane-1-carboxamido)-2-fluoro-N-methyl-N-phenylbenzamide], the pest or weed control at 50 µg/cm2 in assay [1] (setting [6]) and in assay [2] (setting [7]) was 50 to 100% in each case. The “YFM (Biological Results, rating)” value in assay [3] is listed as “A (80-100)”.
Consider `CN1Cc2ccc(NC(=O)c3cc(NC(=O)C4C(c5cc(Cl)cc(Cl)c5)C4(Cl)Cl)ccc3Cl)cc2C1` (stereo not drawn) [F498, 2-Chloro-5-(trans)-2,2-dichloro-3-(3,5-dichlorophenyl)cyclopropane-1-carboxamido)-N-(2-methylisoindolin-5-yl)benzamide], for which the pest or weed control at 50 µg/cm2 in assay [1] (setting [4]) and in assay [2] (setting [5]) was 50 to 100% each time. In addition, the YFM rating entry in assay [3] is “A (80-100)”.
Turning to `COc1c(Cl)cc([C@H]2[C@H](C(=O)Nc3ccc(Cl)c(C(=O)Nc4ccc(F)cc4F)c3)C2(Cl)Cl)cc1Cl` (relative stereo) [F180, trans-2-Chloro-5-(2,2-dichloro-3-(3,5-dichloro-4-methoxyphenyl)cyclopropane-1-carboxamido)-N-(2,4-difluorophenyl)benzamide], the pest or weed control at 50 µg/cm2 in assay [1] (setting [6]) and in assay [2] (setting [7]) was 50 to 100% in each case. The “YFM (Biological Results, rating)” value in assay [3] is on record as “A (80-100)”.
For `Nc1cc(F)cc(F)c1NC(=O)c1cc(NC(=O)[C@H]2[C@H](c3ccc(Cl)c(Cl)c3)C2(Cl)Cl)ccc1Cl` [F407, N-(2-amino-4,6-difluorophenyl)-2-chloro-5-((1R,3R)-2,2-dichloro-3-(3,4-dichlorophenyl)cyclopropane-1-carboxamido)benzamide], the pest or weed control at 50 µg/cm2 in assay [1] (setting [4]) and in assay [2] (setting [5]) was 50 to 100% each time. Further, in assay [3], the YFM rating result is recorded as “A (80-100)”.
With `Nc1cccc(NC(=O)c2cc(NC(=O)[C@H]3[C@H](c4cc(Cl)cc(Cl)c4)C3(Cl)Cl)ccc2Cl)c1F` [F426, N-(3-Amino-2-fluorophenyl)-2-chloro-5-((1R,3R)-2,2-dichloro-3-(3,5-dichlorophenyl)cyclopropane-1-carboxamido)benzamide], the pest or weed control at 50 µg/cm2 in assay [1] (setting [4]) and in assay [2] (setting [5]) was 50 to 100% in each case. The YFM rating result in assay [3] is “A (80-100)”.
Consider `O=C(Nc1ccc(F)cc1F)c1cc(NC(=O)C2C(c3cc(Cl)cc(Cl)c3)C2(Cl)Br)ccc1Cl` (stereo not drawn) [F187, 5-(trans)-2-Bromo-2-chloro-3-(3,5-dichlorophenyl)cyclopropane-1-carboxamido)-2-chloro-N-(2,4-difluorophenyl)benzamide], for which the pest or weed control at 50 µg/cm2 in assay [1] (setting [6]) and in assay [2] (setting [7]) was 50 to 100% each time. The “YFM (Biological Results, rating)” value in assay [3] was “A (80-100)”.
For `O=C(Nc1ccc2c(c1)CCN2)c1cc(NC(=O)[C@H]2[C@H](c3cc(Cl)cc(Cl)c3)C2(Cl)Cl)ccc1Cl` (relative stereo) [F511, 2-Chloro-5-(trans)-(2,2-dichloro-3-(3,5-dichlorophenyl)cyclopropane-1-carboxamido)-N-(indolin-5-yl)benzamide], the pest or weed control at 50 µg/cm2 in assay [1] (setting [4]) and in assay [2] (setting [5]) was 50 to 100% in each case. In addition, in assay [3], the YFM rating entry is “A (80-100)”.
`N#Cc1cc([N+](=O)[O-])ccc1NC(=O)c1cc(NC(=O)[C@H]2[C@H](c3cc(Cl)cc(Cl)c3)C2(Cl)Cl)ccc1Cl` (relative stereo) [F229, trans-2-chloro-N-(2-cyano-4-nitrophenyl)-5-(2,2-dichloro-3-(3,5-dichlorophenyl)cyclopropane-1-carboxamido)benzamide]: the pest or weed control at 50 µg/cm2 in assay [1] (setting [6]) and in assay [2] (setting [7]) was 50 to 100% throughout. Also, the “YFM (Biological Results, rating)” value in assay [3] was “A (80-100)”.
For the molecule `Cc1cc(N)ccc1NC(=O)c1cc(NC(=O)[C@H]2[C@H](c3ccc(F)c(Cl)c3)C2(Cl)Cl)ccc1Cl` [F291, N-(4-Amino-2-methylphenyl)-2-chloro-5-((1R,3R)-2,2-dichloro-3-(3-chloro-4-fluorophenyl)cyclopropane-1-carboxamido)benzamide], the pest or weed control at 50 µg/cm2 in assay [1] (setting [6]) and in assay [2] (setting [7]) was 50 to 100% throughout. The “YFM (Biological Results, rating)” value in assay [3] is listed as “A (80-100)”.
With `O=C(Nc1ccc(F)cc1F)c1cc(NC(=O)[C@H]2[C@H](c3ccc(F)c(Br)c3)C2(Cl)Cl)ccc1Cl` (relative stereo) [F375, 5-(trans)-(3-(3-Bromo-4-fluorophenyl)-2,2-dichlorocyclopropane-1-carboxamido)-2-chloro-N-(2,4-difluorophenyl)benzamide], the pest or weed control at 50 µg/cm2 in assay [1] (setting [4]) and in assay [2] (setting [5]) was 50 to 100% in each case. Moreover, in assay [3], the YFM rating result is on record as “A (80-100)”.
`O=C(Nc1ccc2c(c1)C(=O)N(c1ccc(F)cc1)C2=O)c1cc(NC(=O)[C@H]2[C@H](c3cc(Cl)cc(Cl)c3)C2(Cl)Cl)ccc1Cl` (relative stereo) [F504, 2-Chloro-5-(trans)-(2,2-dichloro-3-(3,5-dichlorophenyl)cyclopropane-1-carboxamido)-N-(2-(4-fluorophenyl)-1,3-dioxoisoindolin-5-yl)benzamide]: the pest or weed control at 50 µg/cm2 in assay [1] (setting [4]) and in assay [2] (setting [5]) was 50 to 100% throughout. The YFM rating entry in assay [3] is on record as “A (80-100)”.
Regarding `O=C(Nc1ncc(F)cc1F)c1cc(NC(=O)[C@H]2[C@H](c3cc(Cl)c(Cl)c(Cl)c3)C2(Cl)Cl)ccc1Cl` [F311, 2-Chloro-5-((1R,3R)-2,2-dichloro-3-(3,4,5-trichlorophenyl)cyclopropane-1-carboxamido)-N-(3,5-difluoropyridin-2-yl)benzamide], the pest or weed control at 50 µg/cm2 in assay [1] (setting [6]) and in assay [2] (setting [7]) was 50 to 100% in each case. Moreover, the “YFM (Biological Results, rating)” value in assay [3] was “A (80-100)”.
On to `COc1cc(NC(=O)c2cc(NC(=O)[C@H]3[C@H](c4cc(Cl)cc(Cl)c4)C3(Cl)Cl)ccc2Cl)ccn1` (relative stereo) [F544, 2-Chloro-5-(trans-2,2-dichloro-3-(3,5-dichlorophenyl)cyclopropane-1-carboxamido)-N-(2-methoxypyridin-4-yl)benzamide], for which the pest or weed control at 50 µg/cm2 in assay [1] (setting [4]) and in assay [2] (setting [5]) was 50 to 100% each time. Moreover, the YFM rating result in assay [3] is recorded as “A (80-100)”.
For the molecule `CCc1ccc(NC(=O)[C@H]2[C@H](c3cc(Cl)cc(Cl)c3)C2(Cl)Cl)cc1C(=O)Nc1ccc(F)cc1` (relative stereo) [PF8, trans-5-(2,2-Dichloro-3-(3,5-dichlorophenyl)cyclopropanecarboxamido)-2-ethyl-N-(4-fluorophenyl)benzamide], the pest or weed control at 50 µg/cm2 in assay [1] (setting [4]) and in assay [2] (setting [5]) was 50 to 100% in each case. Further, the YFM rating entry in assay [3] is recorded as “A (80-100)”.

For the origin of these results see patent publication US10219516B2, “Molecules having pesticidal utility, and intermediates, compositions, and processes, related thereto” (priority 2015, dated 2019).
